The text below walks through data of patent US12492183B2, “Tetrahydroquinazoline derivatives as selective cytotoxic agents” (Merck Sharp & Dohme LLC, priority 2020, dated 2025).

SMILES strings stand for the structures.

The test has as its system PBMCs infected with VSV-G pseudotyped HIV virus (VSV-G/pNLG1-P2A-ΔEnv). The test can be described thus: cells. The settings on record: Homo sapiens, PBMC, read-out: TACK EC50. Type of test: cell-based.
Turning to `Nc1ncc(F)c(Cc2ccc3c(c2)NC(=O)N[C@]3(C#CC2CC2)C(F)(F)F)n1` [Example 15, (S)-7-((2-amino-5-fluoropyrimi-din-4-yl)methyl)-4-(cycloprop-ylethynyl)-4-(trifluoromethyl)-3,4-dihydroquinazolin-2(1H)-one], the half-maximal effective concentration (EC50) (commonly the concentration needed to bring the measured effect to its halfway point) turned out to be 21.4 nM.

On to `Nc1cncc(Cc2ccc3c(c2)NC(=O)N[C@]3(C#CC2CC2)C(F)(F)F)n1` [Example 54, (S)-7-((6-aminopyrazin-2-yl)-methyl)-4-(cyclopropyl-ethynyl)-4-(trifluoromethyl)-3,4-dihydroquinazolin-2(1H)-one], for which the concentration giving a half-maximal response (EC50) turned out to be 67.3 nM.

As for `Cc1cc(Cc2ccc3c(c2)NC(=O)N[C@]3(C#CC2CC2)C(F)(F)F)nc(N)n1` [Example 27, (S)-7-((2-amino-6-methylpyr-imidin-4-yl)methyl)-4-(cyclo-propylethynyl)-4-(trifluoro-methyl)-3,4-dihydroquin-azolin-2(1H)-one], the EC50 turned out to be 152 nM.

Regarding `Nc1ncc(Cl)c(Cc2ccc3c(c2)NC(=O)N[C@]3(C#CC2CC2)C(F)(F)F)n1` [Example 28, (S)-7-((2-amino-5-chloropyr-imidin-4-yl)methyl)-4-(cyclo-propylethynyl)-4-(trifluoro-methyl)-3,4-dihydroquinazo-lin-2(1H)-one], the EC50 stood at 144 nM.

On to `O=C1Nc2cc(Cc3ccncc3)c(F)cc2[C@@](C#CC2CC2)(C(F)(F)F)N1` [Example 57, (S)-4-(cyclopropylethynyl)-6-fluoro-7-(pyridin-4-ylmethyl)-4-(trifluoromethyl)-3,4-dihydroquinazolin-2(1H)-one], for which the 50% effective concentration (EC50) worked out at 120 nM.

Take `Nc1nc(Cc2cc3c(cc2F)[C@@](C#CC2CC2)(C(F)(F)F)NC(=O)N3)cnc1CO` [Example 46, (S)-7-((6-amino-5-(hydroxymethyl)pyrazin-2-yl)methyl)-4-(cyclopropylethynyl)-6-fluoro-4-(trifluoromethyl)-3,4-dihydroquinazolin-2(1H)-one]: the concentration giving a half-maximal response (EC50) was found to be 108 nM.

Turning to `Cn1ccc(Cc2ccc3c(c2)NC(=O)N[C@]3(C#CC2CC2)C(F)(F)F)cc1=O` [Example 5, (S)-4-(cyclopropylethynyl)-7-((1-methyl-2-oxo-1,2-dihydropyridin-4-yl)methyl)-4-(trifluoromethyl)-3,4-dihydroquinazolin-2(1H)-one], the concentration for a half-maximal effect (EC50) worked out at 160 nM.

`Cn1cc(Cc2ccc3c(c2)NC(=O)N[C@]3(C#CC2CC2)C(F)(F)F)ccc1=O` [Example 4, (S)-4-(cyclopropylethynyl)-7-((1-methyl-6-oxo-1,6-dihydropyridin-3-yl)methyl)-4-(trifluoromethyl)-3,4-dihydroquinazolin-2(1H)-one]: the half-maximal effective concentration (EC50) stood at 148 nM.

As for `Nc1ccc(F)c(Cc2ccc3c(c2)NC(=O)N[C@]3(C#CC2CC2)C(F)(F)F)n1` [Example 36, (S)-7-((6-amino-3-fluoro-pyridin-2-yl)methyl)-4-(cyclopropylethynyl)-4-(trifluoromethyl)-3,4-dihydroquinazolin-2(1H)-one], the 50% effective concentration (EC50) amounted to 155 nM.

On to `O=C1Nc2cc(Cc3ccc[nH]c3=O)ccc2[C@@](C#CC2CC2)(C(F)(F)F)N1` [Example 3, (S)-4-(cyclopropylethynyl)-7-((2-oxo-1,2-dihydropyridin-3-yl)-methyl)-4-(trifluoromethyl)-3,4-dihydroquinazolin-2(1H)-one], for which the concentration for a half-maximal effect (EC50) is 237 nM.

On to `Cc1nc(CO)[nH]c(=O)c1Cc1ccc2c(c1)NC(=O)N[C@]2(C#CC1CC1)C(F)(F)F` [Example 63, (S)-4-(cyclopropylethynyl)-7-((2-(hydroxymethyl)-4-methyl-6-oxo-1,6-dihydropyrimidin-5-yl)methyl)-4-(trifluoromethyl)-3,4-dihydroquinazolin-2(1H)-one], for which the concentration for a half-maximal effect (EC50) amounted to 176 nM.

Take `Cc1cc[nH]c(=O)c1Cc1ccc2c(c1)NC(=O)N[C@]2(C#CC1CC1)C(F)(F)F` [Example 2, (S)-4-(cyclopropylethynyl)-7-((4-methyl-2-oxo-1,2-dihydropyridin-3-yl)methyl)-4-(trifluoromethyl)-3,4-dihydroquinazolin-2(1H)-one]: the concentration giving a half-maximal response (EC50) was determined as 132 nM.

On to `O=C1Nc2cc(Cc3ccc(CO)cn3)c(F)cc2[C@@](C#CC2CC2)(C(F)(F)F)N1` [Example 41, (S)-2-((4-(cyclopropylethynyl)-6-fluoro-2-oxo-4-(trifluoromethyl)-1,2,3,4-tetrahydroquinazolin-7-yl)methyl)-5-(hydroxymethyl)pyridin-1-ium 2,2,2-trifluoroacetate], for which the 50% effective concentration (EC50) worked out at 90.7 nM.

Turning to `CN1C(=O)Nc2cc(Cc3ccnc(N)n3)c(Cl)cc2[C@@]1(C#CC1CC1)C(F)(F)F` (single isomer, unassigned) [Example 30], the concentration giving a half-maximal response (EC50) is 64.7 nM.

On to `NC(=O)c1ccc(Cc2ccc3c(c2)NC(=O)N[C@]3(C#CC2CC2)C(F)(F)F)cc1` [Example 8, (S)-4-((4-(cyclopropylethynyl)-2-oxo-4-(trifluoromethyl)-1,2,3,4-tetrahydroquinazolin-7-yl)meth-yl)benzamide], for which the EC50 worked out at 262 nM.

For `Cc1nc(C)c(Cc2cc3c(cc2Cl)[C@@](C#CC2CC2)(C(F)(F)F)NC(=O)N3)c(=O)[nH]1` (single isomer, unassigned) [Example 62B], the EC50 is 68.7 nM.

Regarding `NS(=O)(=O)c1ccc(Cc2ccc3c(c2)NC(=O)N[C@]3(C#CC2CC2)C(F)(F)F)c(F)c1` [Example 6, (S)-4-((4-(cyclopropylethynyl)-2-oxo-4-(trifluoromethyl)-1,2,3,4-tetrahydroquinazolin-7-yl)methyl)-3-fluorobenzenesulfonamide], the EC50 came out at 284 nM.

`Nc1nccc(Cc2ccc3c(c2)NC(=O)N[C@]3(C#CC2CC2)C(F)(F)F)n1` [Example 25, (S)-7-((2-aminopyrimidin-4-yl)methyl)-4-(cyclopropylethynyl)-4-(trifluoromethyl)-3,4-dihydroquinazolin-2(1H)-one]: the EC50 turned out to be 45.5 nM.

As for `CC(F)(F)[C@@]1(C#CC2CC2)NC(=O)Nc2cc(Cc3ccnc(N)n3)c(F)cc21` [Example 47, (S)-7-((2-aminopyrimidin-4-yl)methyl)-4-(cyclopropylethynyl)-4-(1,1-difluoroethyl)-6-fluoro-3,4-dihydroquinazolin-2(1H)-one], the EC50 was found to be 17.1 nM.

For the compound `Nc1cc(Cc2cc3c(cc2F)[C@@](C#CC2CC2)(C(F)(F)F)NC(=O)N3)ccn1` [Example 14, (S)-2-amino-4-((4-(cyclopropyl-ethynyl)-6-fluoro-2-oxo-4-(trifluoromethyl)-1,2,3,4-tetra-hydroquinazolin-7-yl)methyl)-pyridin-1-ium 2,2,2-trifluoro-acetate], the half-maximal effective concentration (EC50) came out at 121 nM.

With `CN1C(=O)Nc2cc(Cc3ccnc(N)n3)ccc2[C@@]1(C#CC1CC1)C(F)(F)F` [Example 39, (S)-7-((2-aminopyrimidin-4-yl)methyl)-4-(cyclopropylethynyl)-3-methyl-4-(trifluoromethyl)-3,4-dihydroquinazolin-2(1H)-one], the EC50 came to 60.3 nM.

Consider `Nc1cc(Cc2ccc3c(c2)NC(=O)N[C@]3(C#CC2CC2)C(F)(F)F)ccc1S(N)(=O)=O` [Example 7], for which the 50% effective concentration (EC50) was determined as 230 nM.

For the compound `Cc1nc[nH]c(=O)c1Cc1ccc2c(c1)NC(=O)N[C@]2(C#CC1CC1)C(F)(F)F` [Example 18, (S)-4-(cyclopropylethynyl)-7-((4-methyl-6-oxo-1,6-dihydro-pyrimidin-5-yl)methyl)-4-(trifluoromethyl)-3,4-dihydro-quinazolin-2(1H)-one], the concentration for a half-maximal effect (EC50) worked out at 174 nM.

Turning to `Cc1nc(C)c(Cc2ccc3c(c2)NC(=O)N(CC(F)F)[C@]3(C#CC2CC2)C(F)(F)F)c(=O)[nH]1` [Example 24, (S)-4-(cyclopropylethynyl)-3-(2,2-difluoroethyl)-7-((2,4-dimethyl-6-oxo-1,6-dihydropyrimidin-5-l)meth-yl)-4-(trifluoromethyl)-3,4-dihydroquinazolin-2(1H)-one], the EC50 turned out to be 146 nM.

On to `Cc1cnc(N)nc1Cc1ccc2c(c1)NC(=O)N[C@]2(C#CC1CC1)C(F)(F)F` [Example 34, (S)-7-((2-amino-5-methylpyr-imidin-4-yl)methyl)-4-(cyclo-propylethynyl)-4-(trifluoro-methyl)-3,4-dihydroquinazo-lin-2(1H)-one], for which the EC50 came out at 155 nM.

Turning to `CS(=O)(=O)c1ccc(Cc2cc3c(cc2F)[C@@](C#CC2CC2)(C(F)(F)F)NC(=O)N3)cc1` [Example 10, (S)-4-(cyclopropylethynyl)-6-fluoro-7-(4-(methylsulfonyl)-benzyl)-4-(trifluoromethyl)-3,4-dihydroquinazolin-2(1H)-one], the 50% effective concentration (EC50) came out at 380 nM.

For the compound `N#Cc1c(Cc2ccc3c(c2)NC(=O)N[C@]3(C#CC2CC2)C(F)(F)F)ccnc1N` [Example 50, (S)-2-amino-4-((4-(cyclo-propylethynyl)-2-oxo-4-(trifluoromethyl)-1,2,3,4-tetrahydroquinazolin-7-yl)-methyl)nicotinonitrile], the EC50 stood at 34.9 nM.

Take `NS(=O)(=O)c1ccc(Cc2ccc3c(c2)NC(=O)N[C@]3(C#CC2CC2)C(F)(F)F)cc1` [Example 9, (S)-4-((4-(cyclopropylethynyl)-2-oxo-4-(trifluoromethyl)-1,2,3,4-tetrahydroquinazolin-7-yl)meth-yl)benzenesulfonamide]: the 50% effective concentration (EC50) is 193 nM.

As to `CC(F)(F)[C@@]1(C#CC2CC2)NC(=O)Nc2cc(Cc3ccnc(N)n3)ccc21` [Example 26, (S)-7-((2-aminopyrimidin-4-yl)methyl)-4-(cyclopropyl-ethynyl)-4-(1,1-difluoroethyl)-3,4-dihydroquinazolin-2(1H)-one], the concentration for a half-maximal effect (EC50) was found to be 31.2 nM.

In the case of `Nc1nccc(Cc2c(F)cc3c(c2F)NC(=O)N[C@]3(C#CC2CC2)C(F)(F)F)n1` [Example 59, (S)-7-((2-aminopyrimidin-4-yl)methyl)-4-(cyclopropylethynyl)-6,8-difluoro-4-(trifluoromethyl)-3,4-dihydroquinazolin-2(1H)-one], the half-maximal effective concentration (EC50) is 122 nM.

`Cc1ncc(Cc2ccc3c(c2)NC(=O)N[C@]3(C#CC2CC2)C(F)(F)F)c(=O)[nH]1` [Example 16, (S)-4-(cyclopropylethynl)-7-((2-methyl-6-oxo-1,6-dihydropyrimidin-5-yl)methyl)-4-(trifluoromethyl)-3,4-dihydroquinazolin-2(1H)-one]: the EC50 was 153 nM.
